# Experimental data taken from PMC12621043, “Un-LOK-ing a New Approach for Conformational Selective Targeting of STK10 (LOK)” (ACS Medicinal Chemistry Letters, 2025).
# Target: T1, K2A2 (CSNK2A2A) (Homo sapiens, UniProt P19784)
# T1 construct: purchased in-house DSF kinase panel (SGC-style construct names; the trailing letter is the construct ID)
# Assay: DSF Tm panel
# Format: binding
# Conditions: 10 μM compound
# T1 sequence (P19784 whole entry): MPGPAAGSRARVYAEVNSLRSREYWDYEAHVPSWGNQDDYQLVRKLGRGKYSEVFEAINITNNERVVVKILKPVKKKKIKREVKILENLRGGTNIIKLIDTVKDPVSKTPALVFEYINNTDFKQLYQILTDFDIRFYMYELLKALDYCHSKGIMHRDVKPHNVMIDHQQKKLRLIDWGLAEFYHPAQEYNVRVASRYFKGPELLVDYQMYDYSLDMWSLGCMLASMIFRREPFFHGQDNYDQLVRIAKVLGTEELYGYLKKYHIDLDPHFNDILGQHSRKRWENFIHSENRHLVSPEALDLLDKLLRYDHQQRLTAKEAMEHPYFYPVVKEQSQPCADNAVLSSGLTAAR
row,Compound,ΔTm at 10 µM
1,O=C(NCc1ccccc1)Nc1ccc2cc1OCCOCCNc1ccn3ncc-2c3n1 [compound 16],2.3 °C
2,O=C(NCc1ccccc1Cl)Nc1ccc2cc1OCCOCCNc1ccn3ncc-2c3n1 [compound 17],4 °C
3,O=C(NCc1cccc(Cl)c1)Nc1ccc2cc1OCCOCCNc1ccn3ncc-2c3n1 [compound 18],3.1 °C
4,O=C(NCc1ccc(Cl)cc1)Nc1ccc2cc1OCCOCCNc1ccn3ncc-2c3n1 [compound 19],3.6 °C

# Test system: TAF1A
# Assay: DSF Tm panel
# Format: binding
# Conditions: 10 μM compound
row,Compound,ΔTm TAF1A
1,O=C(NCc1ccccc1)Nc1ccc2cc1OCCOCCNc1ccn3ncc-2c3n1 [compound 16],"0,4 °C"
2,O=C(NCc1ccccc1Cl)Nc1ccc2cc1OCCOCCNc1ccn3ncc-2c3n1 [compound 17],"0,5 °C"
3,O=C(NCc1cccc(Cl)c1)Nc1ccc2cc1OCCOCCNc1ccn3ncc-2c3n1 [compound 18],"0,5 °C"
4,O=C(NCc1ccc(Cl)cc1)Nc1ccc2cc1OCCOCCNc1ccn3ncc-2c3n1 [compound 19],"-0,4 °C"

# Target: T2, SRCA (Homo sapiens, UniProt P12931)
# T2 construct: purchased in-house DSF kinase panel (SGC-style construct names; the trailing letter is the construct ID)
# T2 sequence (P12931 254-536): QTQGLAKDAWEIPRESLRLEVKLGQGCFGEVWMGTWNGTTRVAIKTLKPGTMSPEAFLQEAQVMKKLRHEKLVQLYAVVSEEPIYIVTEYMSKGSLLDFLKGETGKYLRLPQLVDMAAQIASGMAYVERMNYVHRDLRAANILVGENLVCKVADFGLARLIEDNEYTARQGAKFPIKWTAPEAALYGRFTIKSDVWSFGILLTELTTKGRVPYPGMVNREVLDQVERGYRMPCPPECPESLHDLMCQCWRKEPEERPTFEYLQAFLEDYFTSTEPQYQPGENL
# Assay: DSF Tm panel
# Format: binding
# Conditions: 10 μM compound
row,Compound,ΔTm at 10 µM
1,O=C(NCc1ccccc1)Nc1ccc2cc1OCCOCCNc1ccn3ncc-2c3n1 [compound 16],2.5 °C
2,O=C(NCc1ccccc1Cl)Nc1ccc2cc1OCCOCCNc1ccn3ncc-2c3n1 [compound 17],1.8 °C
3,O=C(NCc1cccc(Cl)c1)Nc1ccc2cc1OCCOCCNc1ccn3ncc-2c3n1 [compound 18],2.6 °C
4,O=C(NCc1ccc(Cl)cc1)Nc1ccc2cc1OCCOCCNc1ccn3ncc-2c3n1 [compound 19],2.1 °C

# Target: T3, TTKA (Homo sapiens, UniProt P33981)
# T3 construct: purchased in-house DSF kinase panel (SGC-style construct names; the trailing letter is the construct ID)
# T3 sequence (P33981 519-808): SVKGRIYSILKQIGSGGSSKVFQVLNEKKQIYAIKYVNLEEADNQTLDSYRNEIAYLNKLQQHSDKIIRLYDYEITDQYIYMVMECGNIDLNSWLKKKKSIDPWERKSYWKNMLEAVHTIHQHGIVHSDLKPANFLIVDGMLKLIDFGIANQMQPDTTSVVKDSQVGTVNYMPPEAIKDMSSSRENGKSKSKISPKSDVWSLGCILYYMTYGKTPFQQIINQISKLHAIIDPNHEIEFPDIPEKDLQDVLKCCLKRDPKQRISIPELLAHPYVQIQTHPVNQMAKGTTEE
# Assay: DSF Tm panel
# Format: binding
# Conditions: 10 μM compound
row,Compound,ΔTm at 10 µM
1,O=C(NCc1ccccc1)Nc1ccc2cc1OCCOCCNc1ccn3ncc-2c3n1 [compound 16],1.5 °C
2,O=C(NCc1ccccc1Cl)Nc1ccc2cc1OCCOCCNc1ccn3ncc-2c3n1 [compound 17],1.8 °C
3,O=C(NCc1cccc(Cl)c1)Nc1ccc2cc1OCCOCCNc1ccn3ncc-2c3n1 [compound 18],2.2 °C
4,O=C(NCc1ccc(Cl)cc1)Nc1ccc2cc1OCCOCCNc1ccn3ncc-2c3n1 [compound 19],1.4 °C

# Target: T4, GAKA (Homo sapiens, UniProt O14976)
# T4 construct: purchased in-house DSF kinase panel (SGC-style construct names; the trailing letter is the construct ID)
# T4 sequence (O14976 14-351): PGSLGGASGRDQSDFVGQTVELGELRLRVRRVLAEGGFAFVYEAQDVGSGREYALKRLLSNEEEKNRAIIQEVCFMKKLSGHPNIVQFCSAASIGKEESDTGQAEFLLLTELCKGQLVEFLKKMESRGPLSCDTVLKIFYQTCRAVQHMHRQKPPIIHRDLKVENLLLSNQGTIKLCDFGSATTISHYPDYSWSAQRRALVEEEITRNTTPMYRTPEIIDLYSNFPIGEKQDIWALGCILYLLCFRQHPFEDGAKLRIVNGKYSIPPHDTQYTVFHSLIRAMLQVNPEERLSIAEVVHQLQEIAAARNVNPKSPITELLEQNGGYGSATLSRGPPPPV
# Assay: DSF Tm panel
# Format: binding
# Conditions: 10 μM compound
row,Compound,ΔTm at 10 µM
1,O=C(NCc1ccccc1)Nc1ccc2cc1OCCOCCNc1ccn3ncc-2c3n1 [compound 16],6.1 °C
2,O=C(NCc1ccccc1Cl)Nc1ccc2cc1OCCOCCNc1ccn3ncc-2c3n1 [compound 17],4.8 °C
3,O=C(NCc1cccc(Cl)c1)Nc1ccc2cc1OCCOCCNc1ccn3ncc-2c3n1 [compound 18],4.1 °C
4,O=C(NCc1ccc(Cl)cc1)Nc1ccc2cc1OCCOCCNc1ccn3ncc-2c3n1 [compound 19],4.4 °C

# Target: T5, STK6A (Homo sapiens, UniProt O14965)
# T5 construct: purchased in-house DSF kinase panel (SGC-style construct names; the trailing letter is the construct ID)
# T5 sequence (O14965 122-403): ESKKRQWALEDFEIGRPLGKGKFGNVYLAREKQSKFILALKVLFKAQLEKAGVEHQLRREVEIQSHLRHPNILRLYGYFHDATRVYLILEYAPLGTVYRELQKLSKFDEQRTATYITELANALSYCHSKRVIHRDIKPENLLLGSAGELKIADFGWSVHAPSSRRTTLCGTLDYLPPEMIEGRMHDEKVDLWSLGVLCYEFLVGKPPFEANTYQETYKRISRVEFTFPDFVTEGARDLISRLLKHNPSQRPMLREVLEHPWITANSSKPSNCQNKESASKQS
# Assay: DSF Tm panel
# Format: binding
# Conditions: 10 μM compound
row,Compound,ΔTm at 10 µM
1,O=C(NCc1ccccc1)Nc1ccc2cc1OCCOCCNc1ccn3ncc-2c3n1 [compound 16],7.5 °C
2,O=C(NCc1ccccc1Cl)Nc1ccc2cc1OCCOCCNc1ccn3ncc-2c3n1 [compound 17],6.7 °C
3,O=C(NCc1cccc(Cl)c1)Nc1ccc2cc1OCCOCCNc1ccn3ncc-2c3n1 [compound 18],7.3 °C
4,O=C(NCc1ccc(Cl)cc1)Nc1ccc2cc1OCCOCCNc1ccn3ncc-2c3n1 [compound 19],7.1 °C

# Target: T6, GSK3BB (Homo sapiens, UniProt P49841)
# T6 construct: purchased in-house DSF kinase panel (SGC-style construct names; the trailing letter is the construct ID)
# T6 sequence (P49841 35-386): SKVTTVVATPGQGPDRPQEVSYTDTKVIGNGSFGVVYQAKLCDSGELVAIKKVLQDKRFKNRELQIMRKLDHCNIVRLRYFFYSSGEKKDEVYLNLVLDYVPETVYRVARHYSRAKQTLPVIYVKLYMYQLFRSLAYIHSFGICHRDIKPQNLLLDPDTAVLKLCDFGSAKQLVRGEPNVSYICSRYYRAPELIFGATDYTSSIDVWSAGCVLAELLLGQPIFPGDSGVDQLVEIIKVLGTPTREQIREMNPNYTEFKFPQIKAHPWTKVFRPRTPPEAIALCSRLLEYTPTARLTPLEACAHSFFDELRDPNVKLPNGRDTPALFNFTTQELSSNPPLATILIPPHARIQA
# Assay: DSF Tm panel
# Format: binding
# Conditions: 10 μM compound
row,Compound,ΔTm at 10 µM
1,O=C(NCc1ccccc1)Nc1ccc2cc1OCCOCCNc1ccn3ncc-2c3n1 [compound 16],1.1 °C
2,O=C(NCc1ccccc1Cl)Nc1ccc2cc1OCCOCCNc1ccn3ncc-2c3n1 [compound 17],1 °C
3,O=C(NCc1cccc(Cl)c1)Nc1ccc2cc1OCCOCCNc1ccn3ncc-2c3n1 [compound 18],0 °C
4,O=C(NCc1ccc(Cl)cc1)Nc1ccc2cc1OCCOCCNc1ccn3ncc-2c3n1 [compound 19],0.6 °C

# Target: T7, BMPR2A (Homo sapiens, UniProt Q13873)
# T7 construct: purchased in-house DSF kinase panel (SGC-style construct names; the trailing letter is the construct ID)
# T7 sequence (Q13873 27-1038): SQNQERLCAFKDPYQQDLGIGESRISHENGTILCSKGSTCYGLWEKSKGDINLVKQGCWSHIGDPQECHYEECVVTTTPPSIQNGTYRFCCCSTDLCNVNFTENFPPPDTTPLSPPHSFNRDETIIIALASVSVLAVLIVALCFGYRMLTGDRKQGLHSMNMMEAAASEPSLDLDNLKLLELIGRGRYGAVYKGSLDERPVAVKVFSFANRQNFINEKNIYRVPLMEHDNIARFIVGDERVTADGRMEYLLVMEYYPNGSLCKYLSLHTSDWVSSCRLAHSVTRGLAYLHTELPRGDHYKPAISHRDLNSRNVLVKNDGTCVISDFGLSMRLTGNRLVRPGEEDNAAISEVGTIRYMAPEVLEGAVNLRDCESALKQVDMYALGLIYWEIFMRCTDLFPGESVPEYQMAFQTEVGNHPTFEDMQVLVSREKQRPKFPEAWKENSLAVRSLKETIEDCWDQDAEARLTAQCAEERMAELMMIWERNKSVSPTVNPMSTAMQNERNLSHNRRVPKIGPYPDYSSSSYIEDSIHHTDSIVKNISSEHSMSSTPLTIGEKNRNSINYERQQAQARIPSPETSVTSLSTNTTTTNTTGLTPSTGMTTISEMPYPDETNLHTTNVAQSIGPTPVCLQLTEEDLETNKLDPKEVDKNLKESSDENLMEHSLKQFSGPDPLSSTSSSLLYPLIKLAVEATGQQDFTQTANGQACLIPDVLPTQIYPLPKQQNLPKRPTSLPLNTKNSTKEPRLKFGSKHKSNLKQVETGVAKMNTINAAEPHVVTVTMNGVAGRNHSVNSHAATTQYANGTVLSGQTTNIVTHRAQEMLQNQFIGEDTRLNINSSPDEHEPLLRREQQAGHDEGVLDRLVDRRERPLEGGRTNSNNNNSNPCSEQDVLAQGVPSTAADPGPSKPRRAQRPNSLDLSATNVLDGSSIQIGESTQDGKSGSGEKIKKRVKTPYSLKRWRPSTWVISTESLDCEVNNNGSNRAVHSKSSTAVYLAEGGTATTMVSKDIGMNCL
# Assay: DSF Tm panel
# Format: binding
# Conditions: 10 μM compound
row,Compound,ΔTm at 10 µM
1,O=C(NCc1ccccc1)Nc1ccc2cc1OCCOCCNc1ccn3ncc-2c3n1 [compound 16],4.4 °C
2,O=C(NCc1ccccc1Cl)Nc1ccc2cc1OCCOCCNc1ccn3ncc-2c3n1 [compound 17],2.6 °C
3,O=C(NCc1cccc(Cl)c1)Nc1ccc2cc1OCCOCCNc1ccn3ncc-2c3n1 [compound 18],2.9 °C
4,O=C(NCc1ccc(Cl)cc1)Nc1ccc2cc1OCCOCCNc1ccn3ncc-2c3n1 [compound 19],2.3 °C

# Target: T8, BRD4 (BRD4A) (Homo sapiens, UniProt O60885)
# T8 construct: purchased in-house DSF kinase panel (SGC-style construct names; the trailing letter is the construct ID)
# Assay: DSF Tm panel
# Format: binding
# Conditions: 10 μM compound
row,Compound,ΔTm at 10 µM
1,O=C(NCc1ccccc1)Nc1ccc2cc1OCCOCCNc1ccn3ncc-2c3n1 [compound 16],0.7 °C
2,O=C(NCc1ccccc1Cl)Nc1ccc2cc1OCCOCCNc1ccn3ncc-2c3n1 [compound 17],1.3 °C
3,O=C(NCc1cccc(Cl)c1)Nc1ccc2cc1OCCOCCNc1ccn3ncc-2c3n1 [compound 18],1.5 °C
4,O=C(NCc1ccc(Cl)cc1)Nc1ccc2cc1OCCOCCNc1ccn3ncc-2c3n1 [compound 19],1 °C

# Target: T9, CAMK1DA (Homo sapiens, UniProt Q8IU85)
# T9 construct: purchased in-house DSF kinase panel (SGC-style construct names; the trailing letter is the construct ID)
# T9 sequence (Q8IU85 whole entry): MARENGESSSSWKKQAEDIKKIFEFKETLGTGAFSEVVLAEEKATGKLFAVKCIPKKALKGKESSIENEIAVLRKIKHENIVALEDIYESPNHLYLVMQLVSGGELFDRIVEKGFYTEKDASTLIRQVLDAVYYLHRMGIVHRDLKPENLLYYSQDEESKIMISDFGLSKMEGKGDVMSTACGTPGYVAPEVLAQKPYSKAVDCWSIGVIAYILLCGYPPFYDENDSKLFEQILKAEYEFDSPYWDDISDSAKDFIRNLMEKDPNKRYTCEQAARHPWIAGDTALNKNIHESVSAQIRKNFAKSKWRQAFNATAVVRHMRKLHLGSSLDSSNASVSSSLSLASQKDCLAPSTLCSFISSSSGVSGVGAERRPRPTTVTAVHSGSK
# Assay: DSF Tm panel
# Format: binding
# Conditions: 10 μM compound
row,Compound,ΔTm at 10 µM
1,O=C(NCc1ccccc1)Nc1ccc2cc1OCCOCCNc1ccn3ncc-2c3n1 [compound 16],0 °C
2,O=C(NCc1ccccc1Cl)Nc1ccc2cc1OCCOCCNc1ccn3ncc-2c3n1 [compound 17],-0.3 °C
3,O=C(NCc1cccc(Cl)c1)Nc1ccc2cc1OCCOCCNc1ccn3ncc-2c3n1 [compound 18],0.4 °C
4,O=C(NCc1ccc(Cl)cc1)Nc1ccc2cc1OCCOCCNc1ccn3ncc-2c3n1 [compound 19],0.6 °C
